Measured values published in patent publication US6531512B1, “Method of treating cancer in patients having a deficiency in p53 tumor suppressor gene” (Health Research Inc., priority 1998, dated 2003).

Columns and labels:
[1] = tested on: MALME-3M human melanoma cells; experiment: Cell cycle distribution of MALME-3M cells by flow cytometry; type: cell-based
Description: MALME-3M cells were cultured as described in Example 1 and treated with 10 μM DENSPM as described in Example 2. Cell cycle arrest was monitored using a FACScan flow cytometry unit (Becton Dickinson, San Jose, Calif.) according to the method of Krishan (1975) J. Cell Biol. 66:[…]. Untreated MALME-3M cell cultures were used as controls.
Cell cycle arrest of serum synchronized MALME-3M cells was also monitored using flow cytometry. MALME-3M cells were synchronized in G0/G1 by replacing cell culture media containing 10% NuSerum (see Example 1) with media lacking NuSerum and incubating the cultures for 120 hours. The synchronized cells were released by the addition of 10% NuSerum (control culture) or 10% NuSerum plus 10 μM DENSPM. The cells were then grown continuously in the presence of serum (control) or DENSPM for up to 96 hours. The untreated cells (control) re-established an asynchronous profile (i.e., progressed through the cell cycle) by 60 hours.
The effect of DENSPM and spermine on cell growth was monitored using a Coulter Counter (see Example 2). The effect on cell cycle was monitored by flow cytometry as described in Example 3.

[2] = tested on: S-adenosylmethionine decarboxylase (SAMDC); experiment: Polyamine enzyme activity in treated melanoma cells: SAMDC; type: cell-based, human; settings: 10 μM
Description: (§1) MALME-3M human melanoma cells were cultured as described in Example 1 and treated with 10 μM DENSPM or 10 μM spermine (SPM) as described in Example 4. SK-MEL-28 cells were also cultured as described in Example 1 and treated with 10 μM DENSPM as describe in Example 4. Untreated cells were used as a control.
(§2) After treatment with DENSPM or spermine, biochemical parameters including polyamine enzymes activity, polyamine pools and analog accumulation were monitored as described by Kramer et al, J. Biol. Chem., 270:2124-32 (1995) and Kramer et al., Cancer Res., 57:5521-5527 (1997). Polyamine enzyme activity was monitored for ornithine […] (ODC); S-adenosylmethionine decarboxylase (SAMDC); and spermidine/spermine N^1-acetyltransferase (SSAT). Polyamine pools was monitored for putrescine (Put); spermidine (Spd); and spermine (Spm).

[3] = tested on: spermidine/spermine N^1-acetyltransferase (SSAT); experiment: Polyamine enzyme activity in treated melanoma cells: SSAT induction; type: cell-based, human; settings: SK-MEL-28 cells, 24 hours
Description: as §1, §2
(§3) Enzyme activity and polyamine pools were measured as described in Example 5.

[4] = tested on: MALME-3M human melanoma cells; experiment: Polyamine pools in MALME-3M cells; type: cell-based; settings: MALME-3M (wt-p53), 10 μM, Table 2 (24 hours treatment)
Description: as §1, §2

[5] = tested on: SK-MEL-28 human melanoma cells; experiment: Polyamine pools and analog accumulation in SK-MEL-28 cells; type: cell-based
Description: as §1, §2, §3

[6] = tested on: cell cycle regulatory proteins, including p53, p21, p27, ppRb, pRb, cyclin D1 and PCNA; experiment: Western blot of cell cycle regulatory proteins in MALME-3M cells; type: cell-based, human; settings: 10 μM
Description: (§4) MALME-3M and SK-MEL-28 cells cultured as described in Example 4 were treated with 10 μM DENSPM for 0 to 48 hours. Western blot analysis of cell cycle regulatory proteins, including p53, p21, p27, ppRb, pRb, cyclin D1 and PCNA was performed following the procedure described by Fogel-Petrovic et al. in Molec. Pharm, 52:69-74 (1997); and Biochemistry, 35:14436-14444 (1996). Antibodies used for detecting the proteins were obtained commercially as follows: p53 from Santa Cruz Biotechnology, Inc. (Santa Cruz, Calif.); PCNA and Cyclin D1 from Oncogene Research Products (Cambridge, Mass.); Rb and p21 from PharMigen (San Diego, Calif.); p27 from Transduction labs (Lexington, Ky.) and β-actin (used to correct for variations in loading) from Sigma Chemical Co. (St. Louis, Mo.). Western blot analysis of each of these proteins was performed at least three times.

[7] = tested on: cell cycle regulatory proteins (p53, p21, p16, p27); experiment: Western blot of cell cycle regulatory proteins in SK-MEL-28 cells; type: cell-based, human; settings: SK-MEL-28, 10 μM
Description: as §4
The effects of 10 μM DENSPM on MALME-3M and SK-MEL-28 cell growth and cell cycle regulatory proteins were determined as described in Examples 2 and 3, respectively. Panel A is a comparison of the effects of DENSPM on cell growth. Panel B is a comparison of cell cycle regulatory proteins. […] In contrast, p16 was not detectable in MALME-3M cells. Data is representative of at least two experiments.

mRNA for p53 and p21 = experiment: Northern blot of p53 and p21 mRNA in MALME-3M cells; type: cell-based, human; settings: asynchronous, 10 μM
Description: Asynchronously growing MALME-3M cells were treated for 0 to 48 hours with 10 μM DENSPM as described in Example 2. Northern blots were used to detect mRNA for p53 and p21. The Northern blot procedure is described by Fogel-Petrovic et al. in Molec. Pharn, 52:69-74 (1997); and Biochemistry, 35:14436-14444 (1996). cDNA probes used in Nothern blot hybridization of p21 and p53 mRNA were obtained, respectively, from Dr. Bert Vogelstein (Johns Hopkins Oncology Center, Baltimore, Md.; El-Deiry et al., Cell, 75:817-825) and from Dr. Stephen Friend (Seattle, Wash.; Ishioka et al., Oncogene 10:1485-1492 (1995)). The relative increase in mRNA with analog treatment was normalized to the […] (GAPDH) signal to account for lane loading differences.

[8] = tested on: SK-MEL-28 human melanoma cells; experiment: Cell growth / apoptotic response of SK-MEL-28 cells (Coulter Counter, growth kinetics); type: cell-based; settings: SK-MEL-28 (mt-p53), 10 μM, 48 hours
[9] = SK-MEL-28 (mt-p53), 10 μM, Table 2, 24 hours
[10] = SK-MEL-28 cells, 24 hours, Table 4

CCNCCCNCCCNCCCNCC [DENSPM, N^1,N^11-diethylnorspermine]
% Total Cells at 48 hours, G1 ([1]; MALME-3M (wt-p53), asynchronous, 10 μM, 48 hours): 88% | cell cycle distribution of serum synchronized cells ([1]; MALME-3M synchronized in G0/G1, released with serum plus 10 μM, up to 96 hours): accumulated in the G1 and G2/M phases of the cycle but not in S phase | onset of G1 arrest after treatment ([1]; MALME-3M, asynchronous, 10 μM): about 16 hours | SAMDC activity ([2]; MALME-3M (wt-p53), Table 2 (24 hours treatment)): 40 pmol/hr/mg protein | SAMDC activity ([2]; SK-MEL-28 (mt-p53), Table 2, 24 hours): 25 pmol/hr/mg protein | SSAT activity [3]: 31,920 pmol/min/mg | Enzyme Activities, SSAT ([3]; Table 4): 31920 pmol/min/mg protein | Polyamine Pools, Put [4]: 205 pmol/10^6 cells | Polyamine Pools, Spd [4]: 60 pmol/10^6 cells | Polyamine Pools, Spm [4]: 285 pmol/10^6 cells | Polyamine Pools, Put [5, 9]: 70 pmol/10^6 cells | Polyamine Pools, Spd [5, 9]: 20 pmol/10^6 cells | Polyamine Pools, Spm [5, 9]: 105 pmol/10^6 cells | decrease in spermine pools ([5]; SK-MEL-28 cells, 24 hours): 95% | Analog (intracellular accumulation) [5, 10]: 7710 pmol/10^6 cells | Polyamine Pools, Put [5, 10]: 115 pmol/10^6 cells | Polyamine Pools, Spd [5, 10]: 45 pmol/10^6 cells | Polyamine Pools, Spm [5, 10]: 190 pmol/10^6 cells | appearance of the hypophosphorylated Rb (pRb) protein band [6]: about 16 hours | start of increase in p21 [6]: about 12 hours | start of increase in wild type p53 [6]: about 12 hours | time of p21 maximum [6]: 30 h | time of p53 maximum [6]: 30 h | protein levels of PCNA ([6]; 0 to 48 hours): unaffected | p21 protein increase relative to zero treatment time (densitometry, normalized to β-actin) ([6]; 30 hour peak): 5 fold | p53 protein increase relative to zero treatment time (densitometry, normalized to β-actin) ([6]; 30 hour peak): 10 fold | levels of p130, cyclin D1 and cyclin E ([6]; 48 hour time course (data not shown)): relatively constant | Rb phosphorylation state by 48 hours ([6]; 48 hours): pRb was the only species | p27 maximum induction ([6]; at 24 to 30 hours): about 1.5 fold | cdk inhibitors p16 and p27 [7]: not increased | p21 protein induction with treatment [7]: not induced | induction of p53 ([7]; 24 hours): no induction | start of p21 mRNA increase (mRNA for p53 and p21): 12 h | p53 mRNA (mRNA for p53 and p21; 0 to 48 hours, normalized to GAPDH): remained constant | p21 mRNA increase (mRNA for p53 and p21; 48 hours, normalized to GAPDH): about 20 fold | % Control Growth [8]: 0%
